# Source: ChEMBL document CHEMBL5291721, “A preclinical secondary pharmacology resource illuminates target-adverse drug reaction associations of marketed drugs” (Nat Commun, 2023)
# Key:
# [1] = biological target: T1, Alpha-2C adrenergic receptor (Homo sapiens, UniProt P18825); format: functional
# T1 sequence (P18825 whole entry): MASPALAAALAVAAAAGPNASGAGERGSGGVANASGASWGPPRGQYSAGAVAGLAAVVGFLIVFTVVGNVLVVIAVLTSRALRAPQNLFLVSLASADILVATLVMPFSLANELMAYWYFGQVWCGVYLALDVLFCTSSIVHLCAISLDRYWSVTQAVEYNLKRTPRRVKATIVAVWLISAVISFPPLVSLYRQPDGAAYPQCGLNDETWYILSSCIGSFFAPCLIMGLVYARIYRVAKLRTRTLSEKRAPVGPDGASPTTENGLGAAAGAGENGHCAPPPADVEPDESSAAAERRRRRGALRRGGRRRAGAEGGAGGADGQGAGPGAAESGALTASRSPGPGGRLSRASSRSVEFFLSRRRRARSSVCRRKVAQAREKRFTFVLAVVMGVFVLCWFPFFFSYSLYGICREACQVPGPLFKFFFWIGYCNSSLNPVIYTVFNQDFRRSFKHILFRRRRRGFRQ
# [2] = biological target: Gamma-aminobutyric acid receptor subunit alpha-1 (Rattus norvegicus, UniProt P62813)
# Sequence of Gamma-aminobutyric acid receptor subunit alpha-1 (P62813 whole entry): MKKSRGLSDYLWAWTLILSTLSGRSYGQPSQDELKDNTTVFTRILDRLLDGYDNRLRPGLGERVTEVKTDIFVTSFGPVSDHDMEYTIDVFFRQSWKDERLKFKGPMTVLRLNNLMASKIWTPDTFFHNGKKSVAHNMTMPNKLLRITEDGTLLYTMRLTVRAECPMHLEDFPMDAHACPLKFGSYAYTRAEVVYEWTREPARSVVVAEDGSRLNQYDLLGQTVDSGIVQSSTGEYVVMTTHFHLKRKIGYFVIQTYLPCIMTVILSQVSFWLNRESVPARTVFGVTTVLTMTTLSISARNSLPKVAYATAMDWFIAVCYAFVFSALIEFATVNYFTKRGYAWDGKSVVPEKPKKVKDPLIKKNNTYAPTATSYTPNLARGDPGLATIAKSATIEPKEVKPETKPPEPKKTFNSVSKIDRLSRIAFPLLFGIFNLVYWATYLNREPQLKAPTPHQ
# [3] = biological target: T2, 5-hydroxytryptamine receptor 1A (Homo sapiens, UniProt P08908); format: functional, cell-based
# T2 sequence (P08908 whole entry): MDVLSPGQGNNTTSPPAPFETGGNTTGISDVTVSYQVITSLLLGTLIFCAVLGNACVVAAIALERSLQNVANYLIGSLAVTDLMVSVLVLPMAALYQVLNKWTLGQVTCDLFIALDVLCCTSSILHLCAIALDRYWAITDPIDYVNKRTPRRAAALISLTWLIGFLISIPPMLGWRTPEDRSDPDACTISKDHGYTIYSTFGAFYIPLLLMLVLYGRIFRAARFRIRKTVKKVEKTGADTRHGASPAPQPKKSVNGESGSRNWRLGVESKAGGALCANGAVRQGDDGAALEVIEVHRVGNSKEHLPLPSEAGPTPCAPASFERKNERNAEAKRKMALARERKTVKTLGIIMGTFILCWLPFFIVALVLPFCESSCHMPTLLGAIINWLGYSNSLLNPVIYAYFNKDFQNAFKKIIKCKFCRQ
# [4] = biological target: 5-hydroxytryptamine receptor 2B (Homo sapiens, UniProt P41595); format: functional, cell-based
# Sequence of 5-hydroxytryptamine receptor 2B (P41595 whole entry): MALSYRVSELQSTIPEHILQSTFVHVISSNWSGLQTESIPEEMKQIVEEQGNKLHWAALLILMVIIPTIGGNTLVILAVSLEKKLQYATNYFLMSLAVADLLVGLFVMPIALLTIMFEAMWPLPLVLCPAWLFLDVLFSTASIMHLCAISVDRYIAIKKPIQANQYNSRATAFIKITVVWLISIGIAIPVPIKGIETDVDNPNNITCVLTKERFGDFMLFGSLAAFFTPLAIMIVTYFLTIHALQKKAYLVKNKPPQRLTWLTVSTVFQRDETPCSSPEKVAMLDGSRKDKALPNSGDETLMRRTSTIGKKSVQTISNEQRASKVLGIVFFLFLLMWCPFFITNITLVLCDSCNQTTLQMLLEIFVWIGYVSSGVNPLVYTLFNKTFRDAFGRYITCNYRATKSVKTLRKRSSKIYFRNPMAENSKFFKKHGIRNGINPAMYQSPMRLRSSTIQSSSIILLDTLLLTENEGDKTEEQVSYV
# [5] = biological target: Voltage-gated inwardly rectifying potassium channel KCNH2 (Homo sapiens, UniProt Q12809); format: functional; details: read-out: AC50
# Sequence of Voltage-gated inwardly rectifying potassium channel KCNH2 (Q12809 whole entry): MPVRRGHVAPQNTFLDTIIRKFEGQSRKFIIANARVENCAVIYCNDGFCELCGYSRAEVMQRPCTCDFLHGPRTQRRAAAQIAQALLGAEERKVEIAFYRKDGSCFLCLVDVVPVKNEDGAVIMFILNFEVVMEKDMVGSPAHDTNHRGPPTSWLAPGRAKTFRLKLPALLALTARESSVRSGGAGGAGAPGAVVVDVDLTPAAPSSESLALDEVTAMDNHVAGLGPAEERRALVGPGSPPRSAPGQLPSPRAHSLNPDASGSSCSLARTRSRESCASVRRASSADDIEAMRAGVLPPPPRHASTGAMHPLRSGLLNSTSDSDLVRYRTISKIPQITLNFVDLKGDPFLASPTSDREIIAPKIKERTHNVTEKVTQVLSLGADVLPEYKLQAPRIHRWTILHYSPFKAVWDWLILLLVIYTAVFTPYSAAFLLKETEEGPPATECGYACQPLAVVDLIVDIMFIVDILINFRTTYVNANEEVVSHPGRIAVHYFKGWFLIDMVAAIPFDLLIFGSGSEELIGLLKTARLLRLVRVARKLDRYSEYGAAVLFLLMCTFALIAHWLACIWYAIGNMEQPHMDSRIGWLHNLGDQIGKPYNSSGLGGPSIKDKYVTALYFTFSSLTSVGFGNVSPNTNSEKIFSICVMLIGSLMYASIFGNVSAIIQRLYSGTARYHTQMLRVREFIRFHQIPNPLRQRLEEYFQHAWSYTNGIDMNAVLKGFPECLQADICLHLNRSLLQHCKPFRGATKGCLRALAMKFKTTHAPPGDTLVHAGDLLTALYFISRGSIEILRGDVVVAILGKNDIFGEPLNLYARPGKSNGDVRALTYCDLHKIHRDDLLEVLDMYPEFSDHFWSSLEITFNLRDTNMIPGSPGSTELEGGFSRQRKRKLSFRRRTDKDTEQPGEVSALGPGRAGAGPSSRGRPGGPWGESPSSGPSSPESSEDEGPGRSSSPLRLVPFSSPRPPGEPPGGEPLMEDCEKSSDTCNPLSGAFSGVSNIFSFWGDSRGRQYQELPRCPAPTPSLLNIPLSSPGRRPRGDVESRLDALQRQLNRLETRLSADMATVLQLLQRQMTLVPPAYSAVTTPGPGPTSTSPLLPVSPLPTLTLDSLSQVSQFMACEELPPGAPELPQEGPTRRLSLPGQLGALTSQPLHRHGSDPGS
# [6] = biological target: 3',5'-cyclic-AMP phosphodiesterase 4D (Homo sapiens, UniProt Q08499); format: functional
# Sequence of 3',5'-cyclic-AMP phosphodiesterase 4D (Q08499 whole entry): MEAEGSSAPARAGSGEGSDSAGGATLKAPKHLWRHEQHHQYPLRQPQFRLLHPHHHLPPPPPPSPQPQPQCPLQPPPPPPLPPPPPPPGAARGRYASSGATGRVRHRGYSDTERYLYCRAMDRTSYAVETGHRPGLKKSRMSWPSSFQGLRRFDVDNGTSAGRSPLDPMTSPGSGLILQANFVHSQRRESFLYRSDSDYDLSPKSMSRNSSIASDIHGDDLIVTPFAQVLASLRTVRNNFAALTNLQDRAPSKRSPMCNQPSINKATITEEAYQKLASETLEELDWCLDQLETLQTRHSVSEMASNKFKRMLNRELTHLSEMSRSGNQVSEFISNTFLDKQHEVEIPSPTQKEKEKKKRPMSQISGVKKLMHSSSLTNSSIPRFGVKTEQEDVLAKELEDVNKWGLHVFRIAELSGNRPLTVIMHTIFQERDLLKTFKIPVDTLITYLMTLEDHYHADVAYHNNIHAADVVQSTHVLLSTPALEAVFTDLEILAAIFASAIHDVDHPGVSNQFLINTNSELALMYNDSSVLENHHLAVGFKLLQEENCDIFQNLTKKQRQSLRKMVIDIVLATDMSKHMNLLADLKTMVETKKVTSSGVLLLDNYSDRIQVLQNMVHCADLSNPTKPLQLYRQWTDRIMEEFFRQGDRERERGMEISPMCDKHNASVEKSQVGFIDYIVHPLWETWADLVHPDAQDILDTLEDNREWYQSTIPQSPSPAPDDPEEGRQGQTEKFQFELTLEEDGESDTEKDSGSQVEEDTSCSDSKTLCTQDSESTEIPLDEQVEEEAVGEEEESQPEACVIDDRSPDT
# [7] = biological target: T3, Thromboxane A2 receptor (Homo sapiens, UniProt P21731)
# T3 sequence (P21731 whole entry): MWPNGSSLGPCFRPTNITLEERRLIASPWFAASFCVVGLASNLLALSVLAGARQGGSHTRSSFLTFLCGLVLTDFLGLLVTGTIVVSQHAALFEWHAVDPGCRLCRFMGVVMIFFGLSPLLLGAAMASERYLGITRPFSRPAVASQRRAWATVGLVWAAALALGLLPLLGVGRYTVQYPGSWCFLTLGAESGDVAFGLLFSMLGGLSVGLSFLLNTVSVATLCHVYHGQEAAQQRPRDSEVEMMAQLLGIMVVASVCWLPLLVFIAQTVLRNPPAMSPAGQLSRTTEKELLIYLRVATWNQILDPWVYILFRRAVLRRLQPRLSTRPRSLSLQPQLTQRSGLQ
# [8] = biological target: D(3) dopamine receptor (Homo sapiens, UniProt P35462)
# Sequence of D(3) dopamine receptor (P35462 whole entry): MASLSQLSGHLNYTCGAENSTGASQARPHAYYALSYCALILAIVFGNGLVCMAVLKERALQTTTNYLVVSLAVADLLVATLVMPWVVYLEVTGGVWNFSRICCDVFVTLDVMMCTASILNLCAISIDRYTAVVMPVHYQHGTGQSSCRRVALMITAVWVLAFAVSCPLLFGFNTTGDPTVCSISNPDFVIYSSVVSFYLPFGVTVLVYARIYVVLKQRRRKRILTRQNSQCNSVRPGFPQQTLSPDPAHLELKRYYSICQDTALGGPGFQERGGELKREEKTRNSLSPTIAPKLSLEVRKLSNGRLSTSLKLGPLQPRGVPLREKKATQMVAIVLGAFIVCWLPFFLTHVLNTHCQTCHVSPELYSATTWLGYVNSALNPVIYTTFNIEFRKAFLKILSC
# [9] = biological target: T4, Alpha-1A adrenergic receptor (Homo sapiens, UniProt P35348); format: functional, cell-based
# T4 sequence (P35348 whole entry): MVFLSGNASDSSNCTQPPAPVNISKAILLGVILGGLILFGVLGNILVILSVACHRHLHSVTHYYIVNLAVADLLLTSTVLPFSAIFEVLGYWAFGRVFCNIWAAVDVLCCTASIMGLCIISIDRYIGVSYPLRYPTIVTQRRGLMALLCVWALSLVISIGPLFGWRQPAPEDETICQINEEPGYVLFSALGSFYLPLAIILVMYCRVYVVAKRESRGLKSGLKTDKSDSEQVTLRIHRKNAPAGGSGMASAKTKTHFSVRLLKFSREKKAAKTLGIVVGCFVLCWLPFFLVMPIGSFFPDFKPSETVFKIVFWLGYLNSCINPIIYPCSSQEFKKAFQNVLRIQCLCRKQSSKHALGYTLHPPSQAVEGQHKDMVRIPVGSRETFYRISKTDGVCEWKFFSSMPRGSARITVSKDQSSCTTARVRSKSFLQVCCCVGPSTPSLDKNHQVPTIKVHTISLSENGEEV
# Also: assay procedure not described here.
SMILES,AC50 [1] [µM],AC50 [2] [µM],AC50 [3] [µM],AC50 [4] [µM],AC50 [5] [µM],AC50 [6] [µM],AC50 [7] [µM],AC50 [8] [µM],AC50 [9] [µM]
O=C(O)CCCCCCCC(=O)O [AZELAIC ACID],> 10,> 10,> 10,> 10,> 30,> 30,> 10,> 30,–
CC(Oc1c(Cl)cccc1Cl)C1=NCCN1 (centres undefined) [LOFEXIDINE],0.42,> 30,–,> 30,8.86,> 30,> 30,> 30,0.0071
O=C(O)/C=C/c1ccc(Cn2ccnc2)cc1 [OZAGREL],> 30,> 30,> 30,> 30,> 30,> 30,> 30,> 30,–
N#Cc1ccc([C@H]2CCc3cncn32)c(F)c1 [OSILODROSTAT],> 10,> 10,–,–,19.7,> 10,> 10,> 10,–
C[C@](N)(Cc1ccc(O)c(O)c1)C(=O)O [METHYLDOPA],> 10,> 10,> 10,> 10,> 30,> 30,> 10,> 30,–
CC(C)C(=O)c1c(C(C)C)nn2ccccc12 [IBUDILAST],> 30,> 30,–,> 30,> 30,0.4,> 30,> 30,> 30
C#C[C@]1(O)CC[C@H]2[C@@H]3CCc4cc(OC5CCCC5)ccc4[C@H]3CC[C@@]21C [QUINESTROL],> 10,> 10,> 10,> 10,> 30,> 30,> 10,> 30,–
C[C@]1(O)CC[C@H]2[C@@H]3CCC4=CC(=O)CC[C@]4(C)[C@@]3(F)[C@@H](O)C[C@@]21C [FLUOXYMESTERONE],> 30,> 10,> 10,> 10,> 30,> 30,> 10,> 30,–
CC(=O)O[C@H]1CC[C@@]2(C)C(=CC[C@@H]3[C@@H]2CC[C@]2(C)C(c4cccnc4)=CC[C@@H]32)C1 [ABIRATERONE ACETATE],> 30,–,–,> 30,> 30,> 30,> 30,> 30,> 30
CNC(C)CCC=C(C)C (centres undefined) [ISOMETHEPTENE],–,–,–,–,> 30,–,> 30,–,–
Nc1nc(N)nc(-c2cc(Cl)ccc2Cl)n1 [IRSOGLADINE],> 30,–,–,22,> 30,21.4,> 30,–,> 30
O=C(NCCN1CCOCC1)c1ccc(Cl)cc1 [MOCLOBEMIDE],> 10,> 10,> 10,> 10,> 30,> 30,> 10,> 30,–
NCC(=O)CCC(=O)O [AMINOLEVULINIC ACID],> 30,> 30,–,–,> 30,> 30,> 30,> 30,> 30
C[C@]12CC[C@H]3[C@@H](CCC4=CC(=O)CC[C@@]43C)[C@@H]1CC[C@@H]2O [TESTOSTERONE],> 10,> 10,> 10,> 10,–,> 30,> 10,> 30,–
CNS(=O)(=O)Cc1ccc2[nH]cc(CCN(C)C)c2c1,> 30,> 30,–,> 10,> 30,> 30,> 30,> 30,> 30
CCN(CC)C(=O)N[C@H]1C[C@@H]2c3cccc4[nH]cc(c34)C[C@H]2N(C)C1 [TERGURIDE],0.0031,> 30,–,0.58,18,> 30,–,0.006,> 30
